Experimental data: patent publication US20070167402A1, “Product of coprecipitation of sparingly soluble substance and water-soluble polymer and process for producing the same” (Meiji Seika Kaisha, Ltd., priority 2003, published 2007)

Experiment: Test 1: Solubility Test (water as test medium, 37° C., HPLC)
Format: physicochemical
Conditions: for solubility in aqueous methyl cellulose or HPMC solution: test medium e.g. 0.5% aqueous methyl cellulose or HPMC solution, compared with value in water (below 3 μg/mL); for solubility (concentration of Compound A in suspension): 37° C., at the point of 30 minutes in Test 1
Method: Each mixture was sampled at several points of time, and each sample was filtered through a membrane filter (Sunprep LCR13-LG, manufactured by Millipore Corp., Japan).
The measurement conditions used for HPLC in Test 1 were as follows: • Detector: Ultraviolet absorptiometer (measurement wavelength: 246 nm) • Column: Stainless steel tube with an inner diameter of 4.6 mm and a length of 25 cm, for 5 μm liquid chromatography, • Column temperature: Fixed temperature at around 40° C. • Mobile phase: Mixture of methanol and water (55:45) • Flow rate: 1 mL/min

solubility (concentration of Compound A in suspension) (water)	solubility (water, 37 °C, water, thermodynamic from solid, water 37° C., 200 rpm paddles, at 30 minutes after the beginning of the test and after, read-out: concentration of Compound A in solubility test (FIG. 1))	SMILES	solubility in aqueous methyl cellulose or HPMC solution
0.8 µg/mL	< 3 µg/mL	COc1cc2[nH]c(=O)c3nn(C(OC(=O)OC(C)C)C(C)C)nc3c(=O)c2cc1OC (single isomer, unassigned) [Comparative Example 1, 2-(1-Isopropoxycarbonyloxy-2-methylpropyl)-7,8-dimethoxy-4(5H), 10-dioxo-2H-1,2,3-triazolo[4,5-c][1]benzazepine]	nearly equal to the above-described value of concentration
2.4 µg/mL		COc1cc2[nH]c(=O)c3nn(C(OC(=O)OC(C)C)C(C)C)nc3c(=O)c2cc1OC (single isomer, unassigned) [Comparative Example 2, 2-(1-Isopropoxycarbonyloxy-2-methylpropyl)-7,8-dimethoxy-4(5H), 10-dioxo-2H-1,2,3-triazolo[4,5-c][1]benzazepine]	nearly equal to the above-described value of concentration
